pIC50: −log10 of the molar value.
Biological target: T1, Recombinant active human SCCE (Homo sapiens, UniProt P49862)
T1 construct: made in house; host or cells: murine C127 cells transfected with a BPV vector (murine MT promoter)
Assay: SCCE Inhibitor Test (chromogenic substrate S-2586, absorbance at 405 nm)
Assay type: biochemical
Settings: for pIC50: 10 min preincubation, 1 mM S-2586, 60 min, 37° C, pH 7.2; for remaining activity at 1 µM / remaining activity at 5 µM / remaining activity at 10 µM: 1 h; for remaining activity at 1 µM: 1 μM compound; for remaining activity at 5 µM: 5 μM compound
Description: Recombinant active human SCCE was produced essentially as described in WO 95/00651. The cDNA encoding human SCCE was introduced into a BPV vector under the control of the murine MT promoter and expressed in transfected C127 cells. The produced SCCE was purified and activated using immobilized bovine trypsin.
SCCE activity was determined using the chromogenic substrate S-2586 (MeO-Suc-Arg-Pro-Tyr-pNA) (Chromogenix, Mölndal, Sweden) by measurement of the change in absorbance at 405 nm essentially as described in WO 95/00651. Inhibitors were dissolved in DMSO and added to the reaction mixture (10 mM sodium phosphate, pH 7.2, 0.5 M NaCl, 2.5 μg/ml SCCE) at appropriate concentrations followed by incubation for 10 min before the start of the enzymatic reaction by subsequent addition of the substrate S-2586 to a final concentration of 1 mM. The change in absorbance at 405 nm after 60 min was recorded and used as a measure of SCCE activity. The assay temperature was 37° C. […] The IC50 values were used to identify compounds as SCCE inhibitors of the invention.

T1 sequence (P49862 30-253): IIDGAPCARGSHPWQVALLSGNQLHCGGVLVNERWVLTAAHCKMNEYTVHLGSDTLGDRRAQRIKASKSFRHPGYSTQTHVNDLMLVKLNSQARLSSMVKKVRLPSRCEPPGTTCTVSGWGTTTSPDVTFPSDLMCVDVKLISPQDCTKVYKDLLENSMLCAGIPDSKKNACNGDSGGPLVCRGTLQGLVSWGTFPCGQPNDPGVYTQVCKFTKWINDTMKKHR

pIC50 | remaining activity at 1 µM [%] | remaining activity at 5 µM [%] | remaining activity at 10 µM (10 μM compound) [%] | % SCCE activity (10 μM compound) [%] | Structure (SMILES)
5.70 | 56 | 36 | – | – | Cc1cc(-c2nc3cc(Cl)ccc3c(=O)o2)ccc1[N+](=O)[O-] [Compound I-13, 7-Chloro-2-(3-methyl-4-nitro-phenyl)-benzo[d][1,3]oxazin-4-one]
6.60 | 22 | 5 | – | – | O=c1oc(-c2cccs2)nc2cc(Cl)ccc12 [Compound I-4, 7-Chloro-2-thiophen-2-yl-benzo[d][1,3]oxazin-4-one]
6.77 | 15 | – | 3 | – | COc1cc2nc(-c3ccccc3Cl)oc(=O)c2cc1OC [Compound I-16, 2-(2-Chloro-phenyl)-6,7-dimethoxy-benzo[d][1,3]oxazin-4-one]
6.22 | 26 | 7 | – | – | O=c1nc(-c2ccco2)oc2ccc(Cl)cc12 [Compound I-18, 6-Chloro-2-furan-2-yl-benzo[e][1,3]oxazin-4-one]
6.30 | – | – | 9 | – | COc1cc2nc(-c3ccc([N+](=O)[O-])cc3Cl)oc(=O)c2cc1OC [Compound I-5, 2-(2-Chloro-4-nitro-phenyl)-6,7-dimethoxy-benzo[d][1,3]oxazin-4-one]
5.70 | – | – | – | 7 | CN(C)c1nc2cc(Cl)cc(Cl)c2c(=O)o1 [Compound I-7]
6.00 | – | – | 10 | – | O=c1oc(-c2ccc(F)cc2)nc2ccsc12 [II-8, 2-(4-fluoro-phenyl)-4H-thieno[3,2-d][1,3]oxazin-4-one]
5.70 | – | – | – | – | O=c1oc(-c2ccncc2)nc2sc3c(c12)CCCCC3 [II-21, 2-Pyridin-4-yl-6,7,8,9-tetrahydro-5H-3-oxa-10-thia-1-aza-benzo[a]azulen-4-one]
– | 47 | 16 | – | – | O=c1nc(-c2ccco2)oc2ccccc12 [Compound I-21, 2-Furan-2-yl-benzo[e][1,3]oxazin-4-one]
6.70 | 19 | 16 | – | – | O=c1oc(-c2ccccc2)nc2sc3c(c12)CCC3 [II-12, 6-Phenyl-2,3-dihydro-1H-5-oxa-8-thia-7-aza-cyclopenta[a]inden-4-one]
6.49 | 18 | 4 | – | – | O=c1nc(-c2cccs2)oc2ccc(Cl)cc12 [Compound I-17, 6-Chloro-2-thiophen-2-yl-benzo[e][1,3]oxazin-4-one]
6.52 | 37 | 21 | – | – | O=c1oc(-c2cccs2)nc2sc3c(c12)CCC3 [II-14, 6-Thiophen-2-yl-2,3-dihydro-1H-5-oxo-8-thia-7-aza-cyclopenta[a]inden-4-one]
7.00 | 15 | 0 | – | – | O=c1oc(-c2ccc([N+](=O)[O-])cc2Cl)nc2cc(Cl)ccc12 [Compound I-2, 7-Chloro-2-(2-chloro-4-nitro-phenyl)-benzo[d][1,3]oxazin-4-one]
5.30 | – | – | 23 | – | O=c1oc(-c2cccs2)nc2ccccc12 [Compound I-9, 2-Thiophen-2-yl-benzo[d][1,3]oxazin-4-one]
5.82 | 50 | 13 | – | – | Cc1sc2nc(-c3ccco3)oc(=O)c2c1C [II-7, 2-Furan-2-yl-5,6-dimethyl-thieno[2,3-d][1,3]oxazin-4-one]
6.15 | 45 | 33 | – | – | O=c1oc(-c2ccccc2)nc2sc3c(c12)CCCC3 [II-17, 2-Phenyl-5,6,7,8-tetrahydro-3-oxa-9-thia-1-aza-fluoren-4-one]
5.70 | – | – | 27 | – | O=c1oc(-c2ccccc2)nc2ccccc12 [Compound I-1, 2-Phenyl-benzo[d][1,3]oxazin-4-one]
6.52 | 37 | 14 | – | – | O=c1oc(-c2ccc(F)cc2)nc2sc3c(c12)CCC3 [II-13, 6-(4-Fluoro-phenyl)-2,3-dihydro-1H-5-oxa-8-thia-7-aza-cyclopenta[a]inden-4-one]
6.00 | 58 | 37 | – | – | CCc1cc2c(=O)oc(-c3ccc(Br)cc3)nc2s1 [II-9, 2-(4-Bromo-phenyl)-6-ethyl-thieno[2,3-d][1,3]oxazin-4-one]
7.15 | 2.7 | 0 | – | – | COc1ccccc1-c1nc2sc3c(c2c(=O)o1)CCCC3 [II-16, 2-(2-Methoxy-phenyl)-5,6,7,8-tetrahydro-3-oxa-9-thia-1-aza-fluoren-4-one]

pIC50 | remaining activity at 1 µM [%] | remaining activity at 5 µM [%] | remaining activity at 10 µM (10 μM compound) [%] | % SCCE activity (10 μM compound) [%] | Structure (SMILES)
6.00 | 52 | 41 | – | – | O=c1oc(-c2cccs2)nc2sc3c(c12)CCCC3 [II-19, 2-Thiophen-2-yl-5,6,7,8-tetrahydro-3-oxa-9-thia-1-aza-fluoren-4one]
< 5.00 | 49 | 27 | – | – | Cc1nc2sc3c(c2c(=O)o1)CCCCC3 [II-22, 2-Methyl-6,7,8,9-tetrahydro-5H-3-oxa-10-thia-1-aza-benzo[a]azulen-4-one]
6.52 | 15 | 8 | – | – | CCc1cc2c(=O)oc(-c3ccc(F)cc3)nc2s1 [II-4, 6-Ethyl-2-(4-fluoro-phenyl)-thieno[2,3-d][1,3]oxazin-4-one]
5.30 | – | – | 24 | – | O=c1oc(-c2ccncc2)nc2ccccc12 [Compound I-8, 2-Pyridin-4-yl-benzo[d][1,3]oxazin-4-one]
6.70 | 8 | 8 | – | – | O=c1oc(-c2ccco2)nc2sc3c(c12)CCC3 [II-11, 6-Furan-2-yl-2,3-dihydro-1H-5-oxa-8-thia-7-aza-cyclopenta[a]inden-4-one]
5.70 | 33 | 15 | – | – | CCc1ccc(-c2nc3cc(Cl)ccc3c(=O)o2)cc1 [Compound I-12, 7-Chloro-2-(4-ethyl-phenyl)benzo[d][1,3]oxazin-4-one]
6.00 | – | – | 9 | – | O=c1oc(-c2ccccc2)nc2ccsc12 [II-6, 2-phenyl-4H-thieno[3,2-d][1,3]oxazin-4-one]
7.15 | 7 | 2.4 | – | – | O=c1oc(-c2ccccc2F)nc2sc3c(c12)CCCC3 [II-15, 2-(2-Fluoro-phenyl)-5,6,7,8-tetrahydro-3-oxa-9-thia-1-aza-fluoren-4-one]
7.70 | 10 | 2 | – | – | O=c1oc(-c2ccccc2Cl)nc2sc3c(c12)CCC3 [II-10, 6-(2-Chloro-phenyl)-2,3-dihydro-1H-5-oxa-8-thia-7-aza-cyclopenta[a]indene-4-one]
6.30 | – | – | 22 | – | O=c1oc(-c2cc([N+](=O)[O-])ccc2Cl)nc2ccccc12 [Compound I-6, 2-(2-Chloro-5-nitro-phenyl)-benzo[d][1,3]oxazin-4-one]
5.40 | 76 | 44 | – | – | O=c1nc(-c2ccccc2Cl)oc2ccccc12 [Compound I-19, 2-(2-Chlorophenyl)-benzo[e][1,3]oxazin-4-one]
7.15 | 0 | 0 | – | – | CCc1cc2c(=O)oc(-c3ccccc3F)nc2s1 [II-1, 6-Ethyl-2-(2-fluoro-phenyl)-thieno[2,3-d][1,3]oxazin-4-one]
5.30 | – | – | 52 | – | COc1cc2nc(-c3ccc(NC(C)=O)cc3)oc(=O)c2cc1OC [Compound I-14, N-[4-(6,7-Dimethoxy-4-oxo-4H-benzo[d][1,3]oxazin-2-yl)-phenyl]-acetamide]
6.82 | 3 | 0 | – | – | CCc1cc2c(=O)oc(-c3ccccc3C)nc2s1 [II-3, 6-Ethyl-2-o-tolyl-thieno[2,3-d][1,3]oxazin-4-one]
6.15 | 39 | 8 | – | – | COc1cc2nc(-c3ccccc3F)oc(=O)c2cc1OC [Compound I-11, 2-(2-Fluoro-phenyl)-6,7-dimethoxy-benzo[d][1,3]oxazin-4-one]
7.30 | – | – | 4 | – | Cc1cc2c(=O)oc(-c3cccc4ccccc34)nc2s1 [II-2, 6-Methyl-2-naphtalen-1-yl-thieno[2,3-d][1,3]oxazin-4-one]
5.70 | 52 | 42 | – | – | COc1cccc(-c2nc3sc4c(c3c(=O)o2)CCCC4)c1 [II-20, 2-(3-Methoxy-phenyl)-5,6,7,8-tetrahydro-3-oxa-9-thia-1-aza-fluoren-4-one]
5.30 | 52 | 22 | – | – | CC(=O)Oc1ccc(-c2nc3ccccc3c(=O)o2)cc1 [Compound I-15, Acetic acid 4-(4-oxo-4H-benzo[d][1,3]oxazin-2-yl)-phenyl ester]
6.00 | 38 | 41 | – | – | O=c1oc(-c2cccc3ccccc23)nc2sc3c(c12)CCCC3 [II-18, 2-Naphtalen-1-yl-5,6,7,8-tetrahydro-3-oxa-9-thia-1-aza-fluoren-4-one]

— patent US7872052B2, “Use of heterocyclic compounds as SCCE inhibitors” (Arexis AB, priority 2003, dated 2011)
